Eight compounds from patent US9493489B2, “Boron-containing small molecules as anti-protozoal agents” (Anacor Pharmaceuticals, Inc., priority 2008, dated 2016) can be followed below.

pIC50: −log10 of the molar value.

For data set [1], the system named is LAB 110 EATRO strain of T. b. brucei. In words: Acute Murine Model A. Type of data set: in vivo, Swiss Webster mice. To be noted: for T. brucei Minimum Effective Dose: bid × 4 days; for mice parasite free: ip, BID for 4 days. How it is done:
Female Swiss Webster mice were inoculated with 250,000 parasites of the LAB 110 EATRO strain of T. b. brucei. 24 hrs post-infection, treatment was initiated BID for 4 days with 20 mg/kg/dose (40 mg/kg/day) intraperitoneally (IP) or orally (PO), 5 mg/kg BID or 10 mg/kg BID orally (PO). N=3 mice/group. Mice were monitored for 30 days for survival. Pentamidine at 2 mg/kg IP was used as the positive control. After 10 days, 0% of the untreated mice were parasite free. After 10 days, 100% of mice treated with 20 mg/kg, ip, BID of 6-(4-chlorophenylsulfinyl)benzo[c][1,2]oxaborol-1(3H)-ol were parasite free. After 30 days, 100% of mice treated with 10 mg/kg, ip, BID of N-(1-hydroxy-1,3-dihydrobenzo[c][1,2]oxaborol-6-yl)-2-(trifluoromethyl)benzamide were parasite free.

Data set [2] relates to TREU 667 strain of T. b. brucei. Kind of data set: Chronic CNS Model. Type of data set: in vivo, mice. How it is done: Mice were infected with 10,000 parasites of the TREU 667 strain of T. b. brucei. Twenty one days post-infection mice were treated with 50 mg/kg of the compound BID for 7 days intraperitoneally (IP). Positive control mice were treated with Berenil on Day 4 post-infection. Negative control mice were treated with Berenil on Day 21. Since Berenil is not able to penetrate the CNS, mice treated at Day 21 are not able to cure the infection. Starting 1 week after the end of treatment, mice are monitored for parasitemia and sacrificed if parasites are detected in the blood. Mice that survive 6 months are considered “cured.”

Data set [3] concerns L. infantum MHOM/MA(BE)/67. Kind of data set: Leishmania infantum macrophage screening assay. Type of data set: cell-based. To be noted: 120 h, primary screen, reference drugs, primary peritoneal mouse macrophages, 5 days incubation. The procedure:
Parasite and cell cultures. Two Leishmania species (L. infantum MHOM/MA(BE)/67 and L. donovani MHOM/ET/67/L82) were used. The strains were maintained in the Golden Hamster (Mesocricetus auratus). Amastigotes were collected from the spleen of an infected donor hamster using three centrifugation purification steps (300 rpm, keeping the supernatant, 2200 rpm, keeping the supernatants and 3500 rpm, keeping the pellet) and spleen parasite burdens were assessed using the Stauber technique (Stauber L A., Exp Parasitol. 18: 1-11 (1966)). Primary peritoneal mouse macrophages were used as host cell and were collected 2 days after peritoneal stimulation with a 2% potato starch suspension. […]
Assays were performed in 96-well microtiter plates, each well contained 10 μl of the compound dilutions together with 190 μl of macrophage/parasite inoculum (3×10^3 cells+4.5×10^5 parasites/well). […] After 5 days incubation, parasite burdens (mean number of amastigotes/macrophage) were microscopically assessed after staining the cells with a 10% Giemsa solution. The results were expressed as % reduction in parasite burden compared to untreated control wells and an IC50 (50% inhibitory concentration) was calculated. […]
Leishmania infantum MHOM/MA(BE)/67 and L. donovani MHOM/ET/67/L82 strains were used and the IC50-values were determined using an extended dose range (2-fold compound dilutions). […]

The nature of data set [4]: In vitro metabolism, mouse S9. Type of data set: in vitro ADME. To be noted: S9 fraction, read-out: in vitro metabolism T1/2 (Mouse S9).
The nature of data set [5]: In vitro metabolism, mouse/human liver microsomes. Type of data set: in vitro ADME. The settings on record: read-out: in vitro metabolism T1/2 (Mouse/human liver microsomes). On the technique in general: Liver microsomes are a subcellular fraction often used to study metabolism.
The next data set has as its target P-gp transporter (Homo sapiens, UniProt P08183). Kind of data set: P-gp transporter substrate assessment. Type of data set: in vitro ADME.
The test system of data set [6] is cytochrome P450 enzyme (CP1A2, 2C9, 2D6, 3A4, CYP2C19). Kind of data set: Cytochrome P450 inhibition. The settings on record: CP1A2, 2C9, 2D6 and 3A4. Format: in vitro ADME.
Data set [7] has as its system T. b. brucei or T. b. rhodesiense. In words: Acute Murine Model B. Type of data set: in vivo, BALB/C mice. To be noted: after 55 days; 50 mg/kg BID IP for 5 days. How it is done: Female BALB/C mice were inoculated with 600 parasites of T. b. brucei or 10^4 parasites of T. b. rhodesiense. 24 hrs post-infection, treatment with 6-(4-chlorophenylsulfinyl)benzo[c][1,2]oxaborol-1(3H)-ol was initiated BID for 5 days at 50 mg/kg BID intraperitoneally (IP). Mice were monitored for 40-60 days for survival. After 10 days, 20% of the untreated mice were parasite free and at 20 days, 0% of the untreated mice were parasite free. After 55 days, 100% of mice treated with 6-(4-chlorophenylsulfinyl)benzo[c][1,2]oxaborol-1(3H)-ol were parasite free.

Chain of P-gp transporter (P08183 whole entry): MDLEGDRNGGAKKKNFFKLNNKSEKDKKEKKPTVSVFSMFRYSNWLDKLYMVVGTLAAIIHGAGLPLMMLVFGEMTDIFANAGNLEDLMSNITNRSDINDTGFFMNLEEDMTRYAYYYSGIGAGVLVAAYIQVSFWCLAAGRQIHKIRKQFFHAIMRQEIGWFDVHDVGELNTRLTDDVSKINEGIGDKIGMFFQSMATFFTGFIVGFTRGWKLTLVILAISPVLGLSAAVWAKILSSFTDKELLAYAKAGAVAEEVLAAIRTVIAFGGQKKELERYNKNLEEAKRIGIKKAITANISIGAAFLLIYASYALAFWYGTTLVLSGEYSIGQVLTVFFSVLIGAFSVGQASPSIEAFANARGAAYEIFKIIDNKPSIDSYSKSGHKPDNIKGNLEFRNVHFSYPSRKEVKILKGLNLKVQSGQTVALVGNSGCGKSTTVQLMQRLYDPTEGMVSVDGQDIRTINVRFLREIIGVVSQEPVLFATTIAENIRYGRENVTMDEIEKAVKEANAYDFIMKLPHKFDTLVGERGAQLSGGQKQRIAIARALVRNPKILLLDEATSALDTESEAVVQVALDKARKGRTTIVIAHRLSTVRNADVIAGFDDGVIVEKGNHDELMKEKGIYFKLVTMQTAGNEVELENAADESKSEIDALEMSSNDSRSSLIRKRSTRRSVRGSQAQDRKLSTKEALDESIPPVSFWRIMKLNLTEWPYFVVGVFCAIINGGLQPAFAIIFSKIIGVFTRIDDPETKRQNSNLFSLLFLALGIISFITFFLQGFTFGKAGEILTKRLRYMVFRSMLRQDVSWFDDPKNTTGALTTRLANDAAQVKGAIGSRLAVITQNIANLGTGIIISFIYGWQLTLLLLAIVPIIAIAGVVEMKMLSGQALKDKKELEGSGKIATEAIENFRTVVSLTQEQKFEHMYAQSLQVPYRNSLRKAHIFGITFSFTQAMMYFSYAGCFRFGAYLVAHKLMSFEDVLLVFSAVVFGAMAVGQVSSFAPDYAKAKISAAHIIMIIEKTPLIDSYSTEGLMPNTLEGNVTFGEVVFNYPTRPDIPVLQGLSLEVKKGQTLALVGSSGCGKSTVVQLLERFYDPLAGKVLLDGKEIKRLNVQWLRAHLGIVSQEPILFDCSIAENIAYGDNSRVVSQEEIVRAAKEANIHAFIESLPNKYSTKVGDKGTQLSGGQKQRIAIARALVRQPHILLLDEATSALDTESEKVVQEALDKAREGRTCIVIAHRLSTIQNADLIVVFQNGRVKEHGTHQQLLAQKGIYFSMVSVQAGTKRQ

Take `O=C(Nc1ccc2c(c1)B(O)OC2)c1ccc(F)cc1C(F)(F)F` [H19, 4-Fluoro-N-(1-hydroxy-1,3-dihydro-benzo[c][1,2]oxaborol-6-yl)-2-trifluoromethyl-benzamide]: the “T. brucei Minimum Effective Dose” value in data set [1] (route po) is listed as 5 mg/kg, bid × 4 days. Moreover, the “mice parasite free for at least 100 days” value in data set [2] (additional results) was 100%.
As usually defined, the pIC50 is −log10 of the IC50, conventionally taken in molar units. Higher therefore signals a low IC50. On to `CCCCCCCCCCCCCCCCOP(=O)([O-])OCC[N+](C)(C)C` [miltefosin], for which the negative-log IC50 (pIC50) in data set [3] is 5.37.
For the compound `O=C(Nc1ccc2c(c1)B(O)OC2)c1ccccc1Cl` [H7, 2-Chloro-N-(1-hydroxy-1,3-dihydro-benzo[c][1,2]oxaborol-6-yl)-benzamide], the “T. brucei Minimum Effective Dose” value in data set [1] (route po) is recorded as 10 mg/kg, bid × 4 days. Further, in data set [2] (additional results), the “mice parasite free for at least 100 days” value is given as 100%.
As for `O=C(Nc1ccc2c(c1)B(O)OC2)c1cc(F)ccc1C(F)(F)F` [H17, 5-Fluoro-N-(1-hydroxy-1,3-dihydro-benzo[c][1,2]oxaborol-6-yl)-2-trifluoromethyl-benzamide], the “T. brucei Minimum Effective Dose” value in data set [1] (route po) is 5 mg/kg, bid × 4 days. In addition, in data set [2] (additional results), the “mice parasite free for at least 60 days” value was determined as 100%.
For `O=C(Nc1ccc2c(c1)B(O)OC2)c1ccccc1C(F)(F)F` [N-(1-hydroxy-1,3-dihydrobenzo[c][1,2]oxaborol-6-yl)-2-(trifluoromethyl)benzamide], the results for the half-life in data set [4] and in data set [5] were 3.33 to 3.75 h and 5.67 to 6 h, respectively. The compound also returned a mice parasite free in data set [1] (after 30 days, 10 mg/kg) of 100%. Moreover, the “substrate for the P-gp transporter” value on P-gp transporter is reported as “not a substrate”. Besides, the “mice with absence of blood parasites through Day 91” value in data set [2] (50 mg/kg BID for 7 days IP, starting at Day 21 post-infection) is listed as 70%. Moreover, in data set [6], the “inhibition of a cytochrome P450 enzyme” value is “does not inhibit”.
Turning to `[O-][S+](c1ccc(Cl)cc1)c1ccc2c(c1)B(O)OC2` (stereo not shown) [6-(4-chlorophenylsulfinyl)benzo[c][1,2]oxaborol-1(3H)-ol], the mice parasite free in data set [7] is on record as 100%; in data set [1] (after 10 days, 20 mg/kg), 100%. Moreover, the half-life in data set [5] is greater than 5.83 h. Besides, the “inhibition of a cytochrome P450 enzyme” value in data set [6] is reported as “does not inhibit”.
For `N=C(N)c1ccc(/N=N/Nc2ccc(C(=N)N)cc2)cc1` [Diminazene, reference compound], the “day by which all animals relapsed to exhibit blood parasitemia” value in data set [2] (treated on Day 21 post-infection) was no more than 53 days.
For the compound `O=C(Nc1ccc2c(c1)B(O)OC2)c1ccccc1C(F)(F)F` [H1, N-(1-hydroxy-1,3-dihydrobenzo[c][1,2]oxaborol-6-yl)-2-(trifluoromethyl)benzamide], the “T. brucei Minimum Effective Dose” value in data set [1] (route ip) is reported as 10 mg/kg, bid × 4 days.
